{"source": "patent US20250275964A1", "about": "“METHODS OF INHIBITING LIVER-TYPE GLUTAMINASE, GLS2” (CORNELL UNIVERSITY, priority 2019, published 2025)", "key": {"[1]": {"system": "TSE cells stably expressing GLS2", "test": "6-day cell proliferation assay, TSE stably expressing GLS2", "assay_type": "cell-based, human", "procedure": "Culture medium was added to 12-well plates (1 ml/well) and wells were seeded with cells at Day 0 as follows. MCF7, T-47D, BT-474, HCC38 cells: […] cells/well. MDA-MB-453 and MDA-MB-231 cells: 1×10^4 cells/well. TSE and Hs 578T cells: 0.3×10^4 cells/well. After 16 hours, culture medium was replaced with fresh medium supplemented with appropriate concentrations of inhibitors and was subsequently replaced every 48 hours. On Day 6 cells were trypsinized and suspended in an appropriate volume of culture medium, and the total number of cells per well was determined using a hemocytometer or a TC20 Automated Cell Counter (Bio-Rad).\nVectors for expressing human GAC or GLS2 in breast cancer cell lines were based on pCDNA3.1/V5-His TOPO (Thermo Fisher Scientific), with the appropriate gene sub-cloned in and the tag switched to HA-tag or myc-tag for immunofluorescence experiments. Vectors pQE80-GAC-72-598 and pQE80-GLS2-38-602, for expressing the processed forms of human GAC (residues 72 to 598) or GLS2 (residues 38 to 602) in E. coli, were described in Huang et al., “Characterization of the Interactions of Potent Allosteric Inhibitors with Glutaminase C, a Key Enzyme in Cancer Cell Glutamine Metabolism,” J. Biol. Chem. 293:3535-3545 (2018), which is hereby incorporated by reference in its entirety.\nFor 60 mm dish format. 0.2 ml Opti-MEM (Gibco) containing […] of the appropriate DNA construct, along with 0.2 ml Opti-MEM containing 12 μl Lipofectamine 2000 (Invitrogen), were separately incubated at room temperature for 5 min. The two solutions were combined and incubated for an additional 20 min, mixed with 1.6 ml culture medium and added to cells. After 5 hours incubation at 37° C. the transfection mixture was replaced with fresh culture medium, and cells were then incubated for an additional 48 hours to allow for ectopic expression of GLS or GLS2. To select for cells stably expressing the DNA construct, culture medium supplemented with 500 μg/ml G-418 disulfate (Research Products International) was added and replaced every 2 days for 2-3 weeks until isolated colonies ˜2 mm in diameter were present. Individual colonies were transferred to a 12-well plate (1 colony per well) using sterile blotting paper soaked in trypsin solution and were then cultured in medium supplemented with 250 μg/ml G-418 disulfate. All colonies were screened by western blot for ectopic expression, and positive clones were maintained in medium supplemented with 250 μg/ml G-418 disulfate."}, "[2]": {"system": "glutamine-mediated TCA cycle anaplerosis in breast cancer cells", "test": "[U-13C]-glutamine labeling and metabolite analysis", "assay_type": "cell-based, human", "procedure": "The procedures for metabolite extraction from cultured cells are described in previous studies (Cluntun et al., “The Rate of Glycolysis Quantitatively Mediates Specific Histone Acetylation Sites,” Cancer Metab. 3:10 (2015); Liu et al., “A Strategy for Sensitive, Large Scale Quantitative Metabolomics,” J. Vis. Exp. e51358-e51358 (2014), which are hereby incorporated by reference in their entirety). Briefly, adherent cells were grown in 6-well plates in biological triplicate to 80% confluence, medium was rapidly aspirated and cells were washed with cold PBS on ice. Then, 1 ml of extraction solvent (80% methanol/water) cooled to −80° C. was added to each well, and the dishes were transferred to −80° C. for 15 min. Cells were then scraped into the extraction solvent on dry ice. All metabolite extracts were centrifuged at 20,000×g at 4° C. for 10 min. Finally, the solvent in each sample was evaporated in a Speed Vacuum. The cell extracts were dissolved in 15 μl water and 15 μl methanol/acetonitrile (1:1 v/v) (LC-MS optima grade, Thermo Fisher Scientific). Samples were centrifuged at 20,000×g for 10 min at 4° C. and the supernatants were transferred to Liquid Chromatography (LC) vials. The injection volume for polar metabolite analysis was 8 μl.\nCells were grown to 80% confluence in 6-well plates with standard culture medium and washed with sterile PBS. Then, culture medium in which glutamine was replaced by [^13C5]-L-glutamine (Cambridge Isotope Laboratories), supplemented with dialyzed FBS (Gibco) and appropriate concentrations of inhibitors was added (1.5 ml/well). At the appropriate time-point, metabolites were extracted as described above.\nA hydrophilic interaction liquid chromatography method (HILIC) with an Xbridge amide column (100×2.1 mm, 3.5 μm) (Waters) was employed on a Dionex (Ultimate 3000 UHPLC) for compound separation and detection at room temperature. The mobile phase A was 20 mM ammonium acetate and 15 mM ammonium hydroxide in water with 3% acetonitrile, pH 9.0, and the mobile phase B was acetonitrile. The linear gradient was as follows: 0 min, 85% B; 1.5 min, 85% B, 5.5 min, 35% B; 10 min, 35% B, 10.5 min, 35% B, 14.5 min, 35% B, 15 min, 85% B, and 20 min, 85% B. The flow rate was 0.15 ml/min from 0 to 10 min and 15 to 20 min, and 0.3 ml/min from 10.5 to 14.5 min. All solvents were LCMS grade and purchased from Thermo Fisher Scientific.\nThe Q Exactive MS (Thermo Scientific) is equipped with a heated electrospray ionization probe (HESI), and the relevant parameters are as listed: evaporation temperature, 120° C.; sheath gas, 30; auxiliary gas, 10; sweep gas, 3; spray voltage, 3.6 kV for positive mode and 2.5 kV for negative mode. Capillary temperature was set at 320° C., and S-lens was 55. A full scan range from 60 to 900 (m/z) was used. The resolution was set at 70,000. The maximum injection time was 200 ms. Automated gain control (AGC) was targeted at 3,000,000 ions.\nRaw data collected from LC-Q Exactive MS were processed on Sieve 2.0 (Thermo Scientific) and ToxID 2.0 (Thermo Scientific). Peak alignment and detection were performed according to the protocol described by Thermo Scientific. For targeted metabolite analysis, the method ‘peak alignment and frame extraction’ was applied. An input file of theoretical m/z and detected retention time of 204 known metabolites was used for targeted metabolites analysis with data collected in positive mode, while a separate input file of 278 metabolites was used for negative mode. M/Z width was set at 10 ppm. The output file including detected m/z and relative intensity in different samples was obtained after data processing. The quantity of the metabolite fraction analyzed was adjusted to the corresponding protein concentration and cell count upon processing a parallel 6-well plate. Quantitation and statistics were calculated and visualized with Microsoft Excel, MORPHEUS and MetaboAnalyst online software."}}, "data": [{"compound": "O=C(Cc1ccccc1)Nc1nnc(CCSCCc2nnc(NC(=O)Cc3ccccc3)s2)s1", "note": "[BPTES]", "values": [{"measurement": "EC50", "setting": "[1]; TSE GLS2 clone 1, 6 days", "value": "> 20", "unit": "µM"}, {"measurement": "EC50", "setting": "[1]; TSE GLS2 clone 2, 6 days", "value": "> 20", "unit": "µM"}, {"measurement": "EC50", "setting": "[1]; TSE with ectopic expression of GLS2, 6 days", "value": "> 20", "unit": "µM"}, {"measurement": "supply of glutamine-derived carbon to glutamate and the TCA cycle", "setting": "[2]; Hs 578T, 10 μM", "value": "potently inhibited"}, {"measurement": "glutamine anaplerosis", "setting": "[2]; MCF7, 10 μM", "value": "partially blocked"}, {"measurement": "supply of glutamine-derived carbon to glutamate and the TCA cycle", "setting": "[2]; MDA-MB-231, 10 μM", "value": "potently inhibited"}, {"measurement": "glutamine-mediated anaplerosis", "setting": "[2]; MDA-MB-453, 10 μM", "value": "no impact"}]}, {"compound": "CN(C)c1ccc(C2Nc3ccc4ccccc4c3C3=C2C(=O)CC(C)(C)C3)cc1Br", "note": "(stereo not drawn) [Compound 968]", "values": [{"measurement": "EC50", "setting": "[1]; TSE GLS2 clone 1, 6 days", "value": 7, "unit": "µM"}, {"measurement": "EC50", "setting": "[1]; TSE GLS2 clone 2, 6 days", "value": 6, "unit": "µM"}, {"measurement": "anaplerosis effect compared between cell lines", "setting": "[2]; 10 μM, MDA-MB-453 versus MDA-MB-231", "value": "more pronounced in MDA-MB-453 cells than MDA-MB-231 cells"}, {"measurement": "total abundance of TCA cycle intermediates", "setting": "[2]; MDA-MB-231 and MDA-MB-453, 10 μM, different periods of time", "value": "decreased"}, {"measurement": "glutamine-mediated TCA cycle anaplerosis", "setting": "[2]; basal- and luminal-subtype cells, 10 μM, 10, 24 and 72 hours", "value": "time-dependent inhibition"}]}]}
